Measured values as given in publication PMC10779143, “Collagen-like Osteoclast-Associated Receptor (OSCAR)-Binding Motifs Show a Co-Stimulatory Effect on Osteoclastogenesis in a Peptide Hydrogel System” (International Journal of Molecular Sciences, 2023).
Entries after “also recorded” stand apart in the source; their conditions may differ. Where a SMILES comes first, the peptide text is derived from it. [ ]: non-standard residue; d: D form. Hyp = O=C(O)[C@@H]1C[C@@H](O)CN1

How the values were obtained:
Raw 264.7 cells [1] = assay: TRAP staining / osteoclast morphology of Raw 264.7 cells on peptide-coated tissue culture plastic; type: cell-based; details: for Osteoclast features / TRAP staining, 10 ng/mL hRANKL / Osteoclast features / TRAP staining, 100 ng/mL hRANKL / Differentiation without hRANKL (TRAP staining): 5 days on coated TCP; for Osteoclast features / TRAP staining, 10 ng/mL hRANKL: 10 ng/mL hRANKL (suboptimal); for Osteoclast features / TRAP staining, 100 ng/mL hRANKL: peptide effect masked by high hRANKL; for Differentiation without hRANKL (TRAP staining): no hRANKL added; for Overall effect on differentiation of Raw 264.7 cells on coated TCP: used as substrate on TCP
Experimental: (§1) Raw 264.7 cells were cultured and passaged as previously described. Cell adhesion to OP1_Hyp and OP1_Pro was assessed as shown by Barrow et al.. Briefly, 48-well plates were coated with 10 µg/mL of OSCAR-binding peptides overnight at 4 °C. The excess peptide was then removed by washing with PBS before adding 1% BSA to block non-specific binding sites for 1 h at 25 °C. Raw 264.7 cells were then resuspended at a concentration of 2 × 10^5 cells/mL and added to the well. Cells were cultured with different concentrations of human RANKL (hRANKL) (catalogue number: 310-01 from Peprotech, London, UK) (0–100 ng/mL) for up to 5 days to assess the contribution of the OSCAR-binding peptides OP1_Hyp and OP1_Pro to the differentiation of Raw 264.7 cells to mature OCs.
After 5 days of post-culture, Raw 264.7 cells were fixed in 4% PFA for 15 min at room temperature. TRAP was stained following the manufacturer’s protocol and evaluated by light microscopy (ThermoFisher, Swindon, UK). Multinucleated TRAP+ cells containing more than three nuclei were scored as mature OCs.

[2] = system: TRAP gene expression, Raw 264.7 cells; assay: qRT-PCR TRAP gene expression, Raw 264.7 cells on hydrogels; type: cell-based; details: incorporated in FF/S/RGDH hydrogel, 10 ng/mL hRANKL
Description: (§2) Fmoc-FF/S (Fmoc-diphenylalanine/serine, 1:1 molar ratio) and Fmoc-FF/S/RGD (1:0.5:0.5 molar ratio) peptides were provided by Biogelx Ltd., Edinburgh, UK. Hydroxyapatite (Hap) nanopowder (formula: Ca10(PO4)6(OH)2, with average particle size <200 nm) was purchased from Sigma-Aldrich (Dorset, UK, product code: 677418) and used as received. Hydrogels made up of Fmoc-based peptides and hydroxyapatite were fabricated as described previously. Hap-decorated Fmoc-FF/S/RGD hydrogels (FF/S/RGDH) were tested in combination with OP1_Hyp, OP1_Pro, and OCol1 to evaluate the contribution of OSCAR as a co-stimulatory pathway for OCP differentiation. […]
(§3) The day after hydrogel fabrication, 2 mL of Raw 264.7 cells (4 × 10^5 cells/mL) were seeded on top of FF/S/RGDH hydrogels containing the collagen-like OSCAR-binding peptides (OP1_Hyp, OP1_Pro) or recombinant collagen-like protein (OCol1). […] After 7 days of culture, cell viability on the peptide- or protein-modified FF/S/RGDH hydrogels was evaluated by using a LIVE/DEAD assay (ThermoFisher Scientific, Swindon, UK). […] After 30 min of incubation, cells were washed 3 times in PBS and imaged using a Nikon Eclipse 50i fluorescence microscope (Tokyo, Japan) (emission wavelengths: green channel for live cells: 515 nm; red channel for dead cells: 635 nm; excitation wavelength: 495 nm). […]
(§4) Gene expression of OC markers was evaluated as previously described. […]

[3] = system: TRAP gene expression, Raw 264.7 cells; assay: qRT-PCR TRAP gene expression, Raw 264.7 cells on peptide-coated TCP; type: cell-based; details: for TRAP expression, 100 ng/mL hRANKL: 5 days vs day 1, relative to GAPDH; for TRAP expression, 100 ng/mL hRANKL / TRAP expression, 0-1 ng/mL hRANKL: n = 3; for TRAP expression, 10 ng/mL hRANKL: 5 days, n = 3, lower than with 100 ng/mL hRANKL; for TRAP expression, 10 ng/mL hRANKL / TRAP expression, 0-1 ng/mL hRANKL: relative to GAPDH; for TRAP expression, 0-1 ng/mL hRANKL: five days
Experimental: as §1
(§5) Gene expression of OC markers was evaluated as previously described. A StepOne™ Real-Time PCR System (Applied Biosystems, Warrington, UK) was used, with TaqMan probes and a universal PCR Master Mix (Life Technologies, Carlsbad, CA, USA, 4304437) in a total volume of 10 µL. The TaqMan probes for TRAP and OSCAR were Mm00475698_m1 and Mm01338227_g1, respectively. Data were analysed using the 2^−∆Ct method and normalised to the endogenous housekeeping gene GAPDH (Mm99999915_g1). Experiments were performed in triplicate.

[4] = target: T1, recombinant human OSCAR-Fc chimera (Homo sapiens, UniProt Q8IYS5); assay: Surface plasmon resonance (SPR) analysis of the peptide-OSCAR interaction; type: binding; details: 25 °C; for Association/dissociation behaviour in sensorgrams: immobilised human OSCAR-Fc, pH 7.4
T1 construct: extracellular region of human OSCAR (Asp19-Asn229, NP_573399); purchased R&D Systems, Bio-Techne 9955-OS
T1 sequence (Q8IYS5 19-229 isoform Q8IYS5-2): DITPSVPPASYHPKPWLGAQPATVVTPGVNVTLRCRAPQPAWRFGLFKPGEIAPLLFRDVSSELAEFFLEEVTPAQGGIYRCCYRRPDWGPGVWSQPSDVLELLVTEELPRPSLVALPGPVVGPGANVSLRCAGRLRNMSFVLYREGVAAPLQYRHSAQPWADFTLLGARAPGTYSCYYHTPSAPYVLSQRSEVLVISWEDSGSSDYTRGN
Experimental: Surface plasmon resonance (SPR) was used to determine the binding affinity between OP1_Hyp or OP1_Pro and a recombinant human OSCAR-Fc chimera made from the extracellular region of human OSCAR (Asp19-Asn229, NP_573399) and the Fc domain from human IgG1 (Pro100-Lys330, P01857-1). A kinetic analysis was performed with immobilised OSCAR-Fc, OP1_Hyp, and OP1_Pro as analytes. A Langmuir 1:1 model was used to perform the kinetic analysis. This model is based on a simple interaction between ligand and analytes where a 1:1 molar complex is formed at equilibrium, i.e., A + B ⇄ AB. The kinetics of the reaction are determined by the association and dissociation rate constants (ka and kd, respectively), with an overall affinity constant (KD) given by KD = kd/ka.
SPR analyses were carried out on a Biacore™ T200 (Cytiva) using a Series S CM5 sensor chip with an assay running buffer of 10 mM PBS, 150 mM NaCl, 0.05% Tween20, pH 7.4. Reference and active flow cells were activated by injecting 70 μL of a 1:1 mixture of 0.2 M 1-ethyl-3-(3-dimethylaminopropyl)-carbodiimide (EDC) and 0.1 M N-hydroxysuccinimide (NHS) at 10 µL/min. Recombinant human OSCAR-Fc chimera (R&D Systems, Bio-Techne, Minneapolis, MN, USA, 9955-OS) was immobilised onto the active flow cell at 20 µg/mL in 10 mM sodium acetate pH 5.0 at 10 µL/min to 6880 response units (RU). Reference and active flow cells were blocked using 1 M ethanolamine, pH 8, at a flow rate of 10 µL/min. For kinetic and equilibrium binding analysis, OP1_Hyp and OP1_Pro peptides were flowed at 25 °C active and reference flow cells at 30 µL/min in assay running buffer at peptide concentrations of 5000—0 nM (OP1_Hyp) and 40,000—0 nM (OP1_Pro), using a dilution series. Surfaces were regenerated with a 10 s injection of 0.1 M glycine, pH 2.0. Data sets were analysed with the built-in BiaEvaluation software (version 4.1). The models used for analysis were the Langmuir 1:1 binding model and the steady-state analysis model. Data are presented as the mean and standard error of the mean (SEM) of triplicate runs.

[5] = system: OSCAR gene expression, Raw 264.7 cells; assay: qRT-PCR OSCAR gene expression, Raw 264.7 cells on peptide-coated TCP; type: cell-based; details: n = 3; for OSCAR expression, 100 ng/mL hRANKL: 5 days vs day 1, relative to GAPDH; for OSCAR expression, 10 ng/mL hRANKL: 5 days; for OSCAR expression, 10 ng/mL hRANKL / OSCAR expression, 0-1 ng/mL hRANKL: relative to GAPDH; for OSCAR expression, 0-1 ng/mL hRANKL: five days
Experimental: as §1, §5

[6] = CD analysis of secondary structure (collagen triple helix) and refolding; type: physicochemical; details: CD Buffer pH 7.4; for Triple helical features (positive ellipticity band) at 70 °C: CD at 70 °C; for Secondary structure by CD: CD spectra 190-260 nm at 10 °C, 0.5 mg/mL peptides, 0.2 mg/mL OCol1; for Refolding of the triple helix after denaturation: cooling from 70 °C to 10 °C, approximately 30 min, 210 µM peptides, 12 µM OCol1
Experimental: Secondary structures of OP1_Hyp, OP1_Pro, and OCol1 were analysed by circular dichroism (CD) spectroscopy using a Jasco® J-810 spectropolarimeter (UCI, Irvine, CA, USA) equipped with a Peltier temperature controller. OP1_Hyp and OP1_Pro were resuspended up to a concentration of 0.5 mg/mL in a CD transparent buffer (10 mM K2HPO4, 10 mM KH2PO4, 150 mM KF, pH 7.4, CD Buffer) [15] and kept for 24 h at 4 °C to allow for the formation of the collagen triple helical structure. OCol1 was exchanged to CD Buffer using a PD 10 disposable desalting column (GE17-0851-01, Merck, Feltham, UK). Briefly, the column was equilibrated with five column volumes of CD Buffer before the addition of OCol1 to the storage buffer. After flow-through collection, 0.5 mL fractions were collected into 1.5 mL Eppendorf tubes. The OCol1 elution fractions were quickly analysed by CD, and the one with the highest concentration (0.2 mg/mL) was used. CD spectra were measured between 190 nm and 260 nm at 10 °C using a 1 mm path-length CD-matched quartz cuvette (Starna Scientific, Ilford, UK). Data were collected every 0.2 nm with a 1 nm bandwidth. Spectral baselines were corrected by subtracting the spectrum of CD Buffer (blank) collected under the same conditions. Additionally, the thermal stability of OP1_Hyp, OP1_Pro, and OCol1 was analysed. Thermal transition profiles were recorded between 10 °C and 60 °C (OP1_Hyp and OP1_Pro) or 70 °C (OCol1) at 222 nm with a data pitch of 0.2 °C, a bandwidth of 1 nm, a detector response time of 32 s, and a temperature slope of 1 °C/min. Samples were cooled back to 10 °C after the different transitions had been completed, and final spectra were recorded at that temperature. Ellipticity in millidegrees was converted to mean residue molar ellipticity Θ (degree cm^2 dmol^−1) by normalising for the number of residues on each peptide or protein [23].

Raw 264.7 cells [7] = assay: F-actin staining / osteoclast-like morphology and differentiation of Raw 264.7 cells on hydrogels; type: cell-based; details: 10 ng/mL hRANKL
[8] = system: OSCAR gene expression, Raw 264.7 cells; assay: qRT-PCR OSCAR gene expression, Raw 264.7 cells on hydrogels; type: cell-based; details: 10 ng/mL hRANKL, relative to GAPDH, n = 3
Description: as §2, §3, §4

Compound | Osteoclast features / TRAP staining, 10 ng/mL hRANKL (Raw 264.7 cells [1]) | Osteoclast features / TRAP staining, 100 ng/mL hRANKL (Raw 264.7 cells [1]) | Differentiation without hRANKL (TRAP staining) (Raw 264.7 cells [1]) | OC differentiation effect, lower suboptimal hRANKL, comparison of peptides (Raw 264.7 cells [1]; coated TCP, lower, suboptimal hRANKL) | Overall effect on differentiation of Raw 264.7 cells on coated TCP (Raw 264.7 cells [1]) | TRAP expression, day 3 to day 7 (comparison with literature) [2] | TRAP expression, 100 ng/mL hRANKL [3] | TRAP expression, 10 ng/mL hRANKL [3] | TRAP expression, 0-1 ng/mL hRANKL [3] | Association/dissociation behaviour in sensorgrams [4] | OSCAR expression, 100 ng/mL hRANKL [5] | OSCAR expression, 10 ng/mL hRANKL [5] | OSCAR expression, 0-1 ng/mL hRANKL [5] | Triple helical features (positive ellipticity band) at 70 °C [6] | Secondary structure by CD [6] | Refolding of the triple helix after denaturation [6] | Differentiation of Raw 264.7 cells to OCs on collagen-modified hydrogels (Raw 264.7 cells [7]; 7 days, incorporated in FF/S/RGDH hydrogel) | OC-like features, improvement vs unmodified hydrogels (Raw 264.7 cells [7]; hydrogels) | OSCAR expression change, day 3 to day 7 [8] | Retention of OSCAR binding on replacing Hyp with Pro ([4]; Hyp at position 3 replaced with Pro)
CC(=O)NCC(=O)N1CCC[C@H]1C(=O)N1C[C@H](O)C[C@H]1C(=O)NCC(=O)N1CCC[C@H]1C(=O)N1C[C@H](O)C[C@H]1C(=O)NCC(=O)N1CCC[C@H]1C(=O)N1C[C@H](O)C[C@H]1C(=O)NCC(=O)N[C@@H](C)C(=O)N1C[C@H](O)C[C@H]1C(=O)NCC(=O)N1CCC[C@H]1C(=O)N[C@@H](C)C(=O)NCC(=O)N[C@@H](Cc1ccccc1)C(=O)N[C@@H](C)C(=O)NCC(=O)N1CCC[C@H]1C(=O)N1C[C@H](O)C[C@H]1C(=O)NCC(=O)N1CCC[C@H]1C(=O)N1C[C@H](O)C[C@H]1C(=O)NCC(=O)N1CCC[C@H]1C(=O)N1C[C@H](O)C[C@H]1C(N)=O [OP1_Hyp] (Ac-GP[Hyp]GP[Hyp]GP[Hyp]GA[Hyp]GPAGFAGP[Hyp]GP[Hyp]GP[Hyp]-NH2) | more cells showing OC-like features such as multinucleation; also recorded: still showed signs of osteoclastogenesis | typical OC features | not able to trigger any differentiation on their own | much more evident for OP1_Hyp compared to OP1_Pro | positive effect on differentiation | increased significantly between day 3 and day 7 of culture | significantly higher after 5 days | TRAP expression was lower | either expressed at lower amounts or did not change significantly after five days of culture | a progressive binding phase to OSCAR with a slow release at all the concentrations tested | significantly higher compared to day 1 | still significantly higher | either expressed at lower amounts or did not change significantly after five days of culture | disappeared from the CD spectra | a band of positive ellipticity with a maximum at ~220 nm and a deep band of negative ellipticity with a minimum at ~198 nm, previously associated with the typical conformation of the collagen triple helix | partial recovery of the collagen structure | the effect was more evident with OP1_Hyp; also recorded: positive effect on osteoclastogenesis | greater bioactivity (i.e., higher nuclei/cell distribution, increased cell diameter) | increased significantly between day 3 and day 7 of culture | 
Ac-GPOGPOGPOGAPGPAGFAGPOGPOGPO-NH2 [OP1_Pro] | still showed signs of osteoclastogenesis | typical OC features | not able to trigger any differentiation on their own |  | positive effect on differentiation |  | significantly higher after 5 days | TRAP expression was lower | either expressed at lower amounts or did not change significantly after five days of culture | both association and dissociation phases occurred very quickly | significantly higher compared to day 1 | still significantly higher | either expressed at lower amounts or did not change significantly after five days of culture | disappeared from the CD spectra | a band of positive ellipticity with a maximum at ~220 nm and a deep band of negative ellipticity with a minimum at ~198 nm, previously associated with the typical conformation of the collagen triple helix | partial recovery of the collagen structure |  |  |  | OSCAR binding is not abolished
